Test results from patent US20240262727A1, “METHOD FOR IMPROVING BIOLOGICAL NITROGEN REMOVAL EFFECT OF LOW-TEMPERATURE SEWAGE” (Sichuan University, priority 2023, published 2024).

What was measured:
[1] = system: microbial community of the activated sludge; assay: High-throughput sequencing / metagenomics of SBR activated sludge (microbial community and functional genes); details: for relative content of Nakamurella (nitrifying bacteria): 17.46% without
Procedure: After the treatment effect was stable, high-throughput sequencing was conducted on the activated sludge to analyze a composition of the microbial community. […] The increased abundance of functional bacteria and functional genes in the activated sludge SBR reactor improved the nitrogen removal effect of this reactor.

[2] = system: activated sludge-biofilm composite system; assay: Activated sludge-biofilm composite MBBR reactor at 6° C., pollutant removal efficiency
Procedure: (2) The hydraulic retention time was 20 h, and an effluent from the reactor was collected to detect the pollutant removal efficiency. After a short period of adaptation, the COD concentration in the reactor effluent dropped below 50 mg/L, and the removal efficiency was always maintained at 85%. After adding the C4-HSL, the nitrogen removal effect gradually became more prominent. On the 16th day, the effluent ammonia-nitrogen concentration dropped below 8 mg/L (a maximum allowable emission concentration of ammonia-nitrogen from most urban sewage treatment plants at a water temperature of below 12° C.) to 6.77 mg/L, and the removal efficiency was 71.86%. On the 51st day, the ammonia-nitrogen concentration in the effluent dropped to almost 0, and the removal efficiency was greater than 99%.
There were three stages: increasing COD from 160 mg/L to 500 mg/L (260, 400, 500 mg/L); increasing ammonia-nitrogen concentration from 25 mg/L to 75 mg/L (40, 65, 75 mg/L); increasing TP from 2 mg/L to 8.5 mg/L (4, 6, 8.5 mg/L).
(§1) The C4-HSL with a concentration of 100 μg/L was added to the influent. The rest steps were the same as those in Example 5.

biofilm on the filler = assay: Single biofilm MBBR at low temperature (sludge discharged on 18th day), pollutant removal and community structure
Procedure: as §1
The hydraulic retention time was 18 h, the rest steps were the same as those Example 1, and the COD removal efficiency was 85%; after the reactor was drained of sludge, the nitrification effect dropped sharply.

[3] = system: biofilm / quorum quenching bacteria; assay: Biofilm MBBR reactor at 22° C., microbial community structure; details: 100 μg/L
Procedure: The sludge was discharged on the 12th day after the biofilm was successfully formed on the filler. The C4-HSL with a concentration of 100 μg/L was added to the influent. The rest steps were the same as those in Example 5.
The high concentration of C4-HSL allowed the quorum quenching bacteria to grow at a suitable temperature (22±1° C.), stimulating quorum quenching and inhibiting the attachment and growth of microorganisms to the filler.

[4] = system: activated sludge and biofilm phases; assay: EPS and ATP of the activated sludge and biofilm phases of the MBBR
Procedure: The EPS concentration in the sludge phase was 46.12±4.8 mg/g·VSS, and the intracellular ATP was 1273.11±5.4 ngATP/mL; the EPS concentration in the biofilm phase was 53.34±3.7 mg/g. VSS, and the microbial activity concentration of a single filler was 20.67±0.22 ngATP/piece.

[5] = system: activated sludge-biofilm composite system; assay: Activated sludge-biofilm composite MBBR reactor at 6° C., pollutant removal efficiency; details: 100 μg/L, HRT 18 h
activated sludge = assay: Activated sludge SBR reactor, biological nitrogen removal with added AHLs signal molecule
Procedure: A system to be treated was cooled to 10° C., and an activated sludge SBR reactor was adopted with an effective volume of 1 L and an MLSS of 4,000 mg/L.
Incoming influent: COD: 250 mg/L, ammonia-nitrogen concentration (NH4^+—N): 30 mg/L, TP: 1.5 mg/L, pH=7-8.
12 h was an operation cycle, including 2.5 h of anoxic phase, 8 h of aerobic phase, and 1.5 h of standing. The anoxic phase had dissolved oxygen (DO) maintained below 0.5 mg/L, and the aerobic phase had DO>2.5 mg/L.
An N-butanoyl-homoserine lactone stock solution with a concentration of 10 mg/L, which was added every 2 operation cycles following the influent.
This example differed from Example 1 in that the treatment system was cooled to 7° C., and after the operation was stable, the water temperature was further lowered to 4° C.

[6] = 100 μg/L, after reactor drained of sludge
[7] = 40 μg/L, 6° C., after treatment effect stable
[8] = 100 μg/L, 6° C., after treatment effect stable
[9] = 100 μg/L, after raising influent in three stages

Q: Which results are given for CCCC(=O)N[C@H]1CCOC1=O [C4-HSL, N-butanoyl-L-homoserine lactone]?
A: abundance of CS gene (TCA cycle) ([1]; 10 μg/L, 10° C.): 0.017%; abundance of complete nitrifying bacterium Nitrospira ([1]; 10 μg/L, 10° C.): 0.100%; abundance of decomposition genes related to QS ([1]; 10 μg/L, 10° C.): 1.92%; abundance of denitrifying bacterium Dechloromonas ([1]; 10 μg/L, 10° C.): 0.246%; abundance of denitrifying bacterium Denitratisoma ([1]; 10 μg/L, 10° C.): 0.189%; abundance of fum gene (TCA cycle) ([1]; 10 μg/L, 10° C.): 0.018%; abundance of regulatory genes related to QS ([1]; 10 μg/L, 10° C.): 2.40%; abundance of sdh gene (TCA cycle) ([1]; 10 μg/L, 10° C.): 0.030%; abundance of transport genes related to QS ([1]; 10 μg/L, 10° C.): 7.75%; abundance of ammonia-oxidizing bacterium MND1 ([1]; 10 μg/L, 10° C. (Example 1)): 0.007%; share of complete nitrification process in nitrogen metabolism ([1]; 10 μg/L, 10° C., metagenomic): 12.53%; abundance of CS gene (TCA cycle) ([1]; 100 μg/L, 10° C.): 0.021%; abundance of Nitrospira ([1]; 100 μg/L, 10° C.): 0.222%; abundance of ammonia-oxidizing bacterium MND1 ([1]; 100 μg/L, 10° C.): 0.005%; abundance of decomposition genes related to QS ([1]; 100 μg/L, 10° C.): 2.50%; abundance of fum gene (TCA cycle) ([1]; 100 μg/L, 10° C.): 0.021%; abundance of heterotrophic nitrifying-aerobic denitrifying bacterium (Microbacterium) ([1]; 100 μg/L, 10° C.): 0.463%; abundance of mdh gene (TCA cycle) ([1]; 100 μg/L, 10° C.): 0.011%; abundance of nitrification gene nxr ([1]; 100 μg/L, 10° C.): 0.027%; abundance of nitrogen removal gene nirK ([1]; 100 μg/L, 10° C.): 0.015%; abundance of regulatory genes related to QS ([1]; 100 μg/L, 10° C.): 2.98%; abundance of sdh gene (TCA cycle) ([1]; 100 μg/L, 10° C.): 0.040%; abundance of transport genes related to QS ([1]; 100 μg/L, 10° C.): 9.22%; share of complete nitrification process in nitrogen metabolism ([1]; 100 μg/L, 10° C.): 13.82%; total abundance of 11 species of denitrifying bacteria ([1]; 100 μg/L, 10° C.): 16.53%; abundance of ammonia-oxidizing bacterium Ellin6067 ([1]; 100 μg/L, 10° C. (Example 2)): 0.393%; relative abundance of Arthrobacter, Nakamurella, Micrococcaceae and Nitrosomonas ([1]; 4° C., after system stable): promoted the increase; relative abundance of TM7a, Nakamurella, Tessaracoccus and Ferruginibacter ([1]; 7° C., after system stabilized): increased; effect on Actinobacteriota and Gemmatimonadota ([1]; room temperature): inhibition at low concentrations and promotion at high concentrations; relative content of Nakamurella (nitrifying bacteria) ([1]; room temperature, high-concentration C4-HSL): 20.79%; relative content of Nakamurella (nitrifying bacteria) ([1]; room temperature, low-concentration C4-HSL): 16.66%; growth and reproduction of Patescibacteria ([1]; room temperature, effect increased with concentration): promote; growth of Proteobacteria and Bacteroidota (phylum level) ([1]; room temperature, stronger at higher concentration): inhibited; ammonia-nitrogen removal efficiency ([2]; 40 μg/L, 6° C., 16th day): 71.86%; effluent ammonia-nitrogen concentration ([2]; 40 μg/L, 6° C., 16th day, influent 25 mg/L): 6.77 mg/L; ammonia-nitrogen concentration in the effluent ([2]; 40 μg/L, 6° C., 51st day): ~0; ammonia-nitrogen removal efficiency ([2]; 40 μg/L, 6° C., 51st day): greater than 99%; COD removal efficiency ([2]; 40 μg/L, 6° C., HRT 20 h): 85%; COD concentration in the reactor effluent ([2]; 40 μg/L, 6° C., HRT 20 h, influent COD 160 mg/L (Example 5)): below 50 mg/L; effluent COD concentration ([2]; 40 μg/L, 6° C., third stage influent COD 500, ammonia-nitrogen 75, TP 8.5 mg/L, 234th day): below 50 mg/L; TN removal efficiency ([2]; 40 μg/L, third stage influent): not less than 80%; effluent total nitrogen (TN) concentration ([2]; 40 μg/L, third stage influent): 12 mg/L; COD removal efficiency ([2]; 40 μg/L, third stage influent, 234th day): 95%; effluent ammonia-nitrogen removal efficiency ([2]; 100 μg/L, after raising influent in three stages (COD 500, ammonia-nitrogen 75, TP 8.5 mg/L)): not less than 99%; COD removal efficiency (biofilm on the filler; 100 μg/L, HRT 18 h, sludge discharged on 18th day (Comparative Example 7)): 85%; ammonia-nitrogen removal efficiency (biofilm on the filler; [6]): 40%; effluent ammonia-nitrogen concentration (biofilm on the filler; [6]): 12 mg/L; growth and enrichment of Bacteroidetes and Actinobacteria on the filler (biofilm on the filler; low temperature conditions): beneficial to promote the growth and enrichment; nitrification effect of a single biofilm system (biofilm on the filler; low temperature, single biofilm system): could not quickly improve; colonization and growth of biofilm ([3]; 22° C.): inhibited; growth of quorum quenching bacteria ([3]; 22° C. (Comparative Example 8)): promoted; EPS concentration in the biofilm phase [4, 7]: 53.34±3.7 mg/g. VSS; EPS concentration in the sludge phase [4, 7]: 46.12±4.8 mg/g·VSS; intracellular ATP (sludge phase) [4, 7]: 1273.11±5.4 ngATP/mL; microbial activity concentration of a single filler [4, 7]: 20.67±0.22 ngATP/piece; EPS concentration in the activated sludge phase ([4]; 40 μg/L, third stage influent): 127.07±4.5 mg/g·VSS; EPS concentration in the biofilm phase ([4]; 40 μg/L, third stage influent): 113.70±2.59 mg/g. VSS; intracellular ATP (sludge phase) ([4]; 40 μg/L, third stage influent): 1709.78±4.1 ngATP/mL; microbial activity concentration of a single filler ([4]; 40 μg/L, third stage influent): 113.99±0.67 ngATP/mL; EPS concentration in activated sludge phase [4, 8]: 80.62±3.1 mg/g·VSS; EPS concentration in biofilm phase [4, 8]: 96.74±2.8 mg/g·VSS; intracellular ATP (sludge phase) [4, 8]: 2441.01±7.2 ngATP/mL; microbial activity concentration of a single filler [4, 8]: 26.56±0.42 ngATP/piece; EPS concentration in activated sludge phase [4, 9]: 380.38±5.7 mg/g·VSS; EPS concentration in biofilm phase [4, 9]: 235.18±3.5 mg/g·VSS; intracellular ATP (sludge phase) [4, 9]: 5868.42±8.9 ngATP/mL; microbial activity concentration of a single filler [4, 9]: 113.99±0.67 ngATP/mL; ammonia-nitrogen removal efficiency ([5]; 5th day): 77.43%; effluent ammonia-nitrogen concentration ([5]; 5th day (Example 6)): 5.85 mg/L; ammonia-nitrogen removal efficiency ([5]; 12th day): greater than 99%; average NH4+—N removal efficiency (activated sludge; 10 μg/L, 4° C. (Example 3)): 99.3%; MLSS lower than that of the control group (without C4-HSL added) (activated sludge; 10 μg/L, 7° C.): 22%; average NH4+—N removal efficiency (activated sludge; 10 μg/L, 7° C., after stabilization (Example 3)): 96.9%; MLSS lower than that of the control group (without C4-HSL added) (activated sludge; 100 μg/L, 7° C.): 19%; average NH4+—N removal efficiency (activated sludge; 100 μg/L, 7° C., after stabilization (Example 4)): 96.3%
